# Molecular target: Wee1-like protein kinase (Homo sapiens, UniProt P30291)
# Experiment: Wee1 Enzymatic Activity Inhibition Assay
# Experimental: The enzymatic assay used to determine activity was a Luminescence assay using a Microplate Reader (BMG, ClarioStar Plus). The enzymatic reaction was carried out in assay buffer (40 mM TRIS-HCl pH 7.4-7.6, 20 mM MgCl2, 0.05 mM DTT, 0.1 mg/ml BSA, 5 mM MnCl2). The compounds were dispensed on a 384 well Diamond Well Plate (Axigen, Cat #P-384-120SQ-C-S) using the Biomek FX liquid handling system at 100× solutions of compounds in DMSO. 2×Wee1-PolyE4Y1 mix (final concentration 0.85 ng/μl of Wee1 and 0.2 μg/μl of PolyE4Y1) was prepared in 1× Assay buffer and 5.5 μl of mixture per well was added into 384w white Reaction plate with NBS (Corning, Cat #4513). 5.5 μl of PolyE4Y1 substrate w/o Wee1 in 1× buffer was used for negative control. Plates were centrifuged for 1 min at 100 g. Next step the Compounds were added to Reaction plate using Biomek station via following steps: 1 μl of 100× compounds (in DMSO) were mixed thoroughly with 49 μl of 2×10 μM ATP in Assay Buffer, then 5.5 μl of this mixture was added to Reaction plate with 5.5 μl of Wee1-PolyE4Y1 mix. Plates were centrifuged for 1 min at 100 g and incubated for 1 h at room temperature. Next 3 μL of ADP-Glo reagent (Promega, ADP-Glo™ Kinase Assay, Cat #V9102) per well was added. Plates were incubated for 30 minutes at room temperature. Then 6 μL of Kinase detection reagent (Promega, ADP-Glo™ Kinase Assay, Cat #V9102) per well was added and the Luminescence was measured using Microplate Reader.
# Chain of Wee1-like protein kinase (P30291 whole entry): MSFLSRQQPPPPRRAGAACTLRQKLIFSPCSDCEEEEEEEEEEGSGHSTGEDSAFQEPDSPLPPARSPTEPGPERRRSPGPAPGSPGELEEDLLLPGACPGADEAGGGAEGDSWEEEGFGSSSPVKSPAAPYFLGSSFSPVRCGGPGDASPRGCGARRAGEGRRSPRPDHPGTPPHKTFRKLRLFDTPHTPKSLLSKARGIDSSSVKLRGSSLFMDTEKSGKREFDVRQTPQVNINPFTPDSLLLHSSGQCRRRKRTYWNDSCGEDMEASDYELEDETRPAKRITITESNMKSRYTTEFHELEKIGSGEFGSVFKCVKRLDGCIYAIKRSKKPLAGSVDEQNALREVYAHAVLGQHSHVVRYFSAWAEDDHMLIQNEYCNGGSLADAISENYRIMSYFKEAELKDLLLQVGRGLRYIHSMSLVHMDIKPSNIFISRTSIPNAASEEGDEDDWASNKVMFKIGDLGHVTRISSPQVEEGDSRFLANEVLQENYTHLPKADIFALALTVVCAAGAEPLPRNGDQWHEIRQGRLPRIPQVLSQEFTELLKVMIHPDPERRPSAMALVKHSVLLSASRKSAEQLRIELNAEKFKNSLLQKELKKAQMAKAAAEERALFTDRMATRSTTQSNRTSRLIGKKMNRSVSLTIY
row,SMILES,EC50 [µM]
1,"C=CCn1c(=O)c2cnc(Nc3ccc(N4CCN(Cc5cc(Cn6c(=O)[nH]c(=O)c7c(F)cccc76)ccc5F)CC4)cc3)nc2n1-c1cccc(C(C)(C)O)n1 [US20250270212, Compound 34]",< 0.01
2,"C=CCn1c(=O)c2cnc(Nc3ccc(N4CCN(Cc5ccc(-c6[nH]c7cc(F)cc8c7c6CCNC8=O)cc5)CC4)cc3)nc2n1-c1ccccn1 [US20250270212, Compound 39]",< 0.01
3,"Cn1c2nc(Nc3ccc(N4CCC(c5nc6cccc(C(N)=O)c6[nH]5)CC4)cc3)ncc2c(=O)n1-c1ccccn1 [US20250270212, Compound 91]",> 1
4,"Cn1c2nc(Nc3ccc(N4CCN(C(=O)c5cc(Cn6c(=O)[nH]c(=O)c7c(F)cccc76)ccc5F)CC4)cc3)ncc2c(=O)n1-c1ccccn1 [US20250270212, Compound 17]",> 1
5,"Cn1c(=O)c2cnc(N3CCN(C(=O)c4cc(Cc5n[nH]c(=O)c6ccccc56)ccc4F)CC3)nc2n1-c1ccccn1 [US20250270212, Compound 5]",> 1
6,"C=CCn1c(=O)c2cnc(NCCNC(=O)c3cc(Cc4n[nH]c(=O)c5ccccc45)ccc3F)nc2n1-c1cccc(C(C)(C)O)n1 [US20250270212, Compound 6]",> 1
7,"C=CCn1c(=O)c2cnc(NC3CCN(Cc4ccc(-c5[nH]c6cc(F)cc7c6c5CCNC7=O)cc4)CC3)nc2n1-c1cccc(C(C)(C)O)n1 [US20250270212, Compound 47]",> 1
8,"Cn1c(=O)c2cnc(Nc3ccc(N4CCCC(c5nc6cccc(C(N)=O)c6[nH]5)C4)cc3)nc2n1-c1ccccn1 (stereo unspecified) [US20250270212, Compound 96]",< 0.01

# More lines, now with the values ahead:
row,EC50 [µM],SMILES
1,< 0.01,"C=CCn1c(=O)c2cnc(Nc3ccc(N4CCN(C(=O)c5cc(Cc6n[nH]c(=O)c7ccccc67)ccc5F)CC4)cc3)nc2n1-c1cccc(C(C)(C)O)c1 [US20250270212, Compound 1]"
2,> 1,"C=CCn1c(=O)c2cnc(NC3CCN(C(=O)c4cc(Cc5n[nH]c(=O)c6ccccc56)ccc4F)CC3)nc2n1-c1cccc(C(C)(C)O)n1 [US20250270212, Compound 4]"
3,< 0.01,"Cn1c(=O)c2cnc(Nc3ccc(N4CCN(Cc5cc(Cc6n[nH]c(=O)c7ccccc67)ccc5F)CC4)cc3)nc2n1-c1cccc(C(C)(C)O)n1 [US20250270212, Compound 8]"
4,< 0.01,"C=CCn1c(=O)c2cnc(Nc3ccc(N4CCN(C(=O)c5cc(Cn6c(=O)[nH]c(=O)c7c(F)cccc76)ccc5F)CC4)cc3)nc2n1-c1cccc(C(C)(C)O)n1 [US20250270212, Compound 16]"
5,> 1,"Cn1c2nc(Nc3ccc(N4CCN(C(=O)c5cc(Cc6n[nH]c(=O)c7ccccc67)ccc5F)CC4)cc3)ncc2c(=O)n1-c1ccccn1 [US20250270212, Compound 12]"
6,< 0.01,"Cn1c(=O)c2cnc(Nc3ccc(N4CCN(C(=O)c5cc(Cc6n[nH]c(=O)c7ccccc67)ccc5F)CC4)cc3)nc2n1-c1cccc(C(C)(C)O)n1 [US20250270212, Compound 7]"
7,> 1,"C=CCn1c(=O)c2cnc(N3CCN(C(=O)c4cc(Cc5n[nH]c(=O)c6ccccc56)ccc4F)CC3)nc2n1-c1cccc(C(C)(C)O)n1 [US20250270212, Compound 2]"
8,< 0.01,"C=CCn1c(=O)c2cnc(Nc3ccc(N4CCN(C(=O)c5cc(Cn6c(=O)[nH]c(=O)c7c(F)cccc76)ccc5F)CC4)cc3)nc2n1-c1ccccn1 [US20250270212, Compound 28]"
